Experimental data as given in ChEMBL document CHEMBL6109078, “Pyrylium derivatives as outer membrane permeabilizers against MDR gram-negative bacteria via multi-target mode of action” (Eur J Med Chem, 2025).
Converted amounts (≈) assume the structure as drawn.

Tests used:
Type in all cases: functional
Escherichia coli [1] = assay: Antibacterial activity against ESBL positive Escherichia coli ATCC 35218 assessed as inhibition of bacterial growth by CLSI protocol based method
Klebsiella pneumoniae [2] = assay: Antibacterial activity against Klebsiella pneumoniae BAA ATCC 1706 assessed as inhibition of bacterial growth by CLSI protocol based method
Pseudomonas aeruginosa [3] = assay: Antibacterial activity Pseudomonas aeruginosa PAO1 assessed as inhibition of bacterial growth by CLSI protocol based method
Acinetobacter baumannii [4] = assay: Antibacterial activity against Acinetobacter baumannii ATCC 19606 assessed as inhibition of bacterial growth by CLSI protocol based method
Klebsiella pneumoniae [5] = assay: Antibacterial activity against Klebsiella pneumoniae ATCC 700603 assessed as inhibition of bacterial growth by CLSI protocol based method
Escherichia coli [6] = assay: Antibacterial activity against Escherichia coli ATCC 25922 assessed as inhibition of bacterial growth by CLSI protocol based method
Pseudomonas aeruginosa [7] = assay: Antibacterial activity Pseudomonas aeruginosa ATCC 27853 assessed as inhibition of bacterial growth by CLSI protocol based method
Acinetobacter baumannii [8] = assay: Antibacterial activity against multi-drug resistant Acinetobacter baumannii clinical isolate 51 assessed as inhibition of bacterial growth by CLSI protocol based method
Acinetobacter baumannii [9] = assay: Antibacterial activity against multi-drug resistant Acinetobacter baumannii clinical isolate 5 assessed as inhibition of bacterial growth by CLSI protocol based method
Acinetobacter baumannii [10] = assay: Antibacterial activity against multi-drug resistant Acinetobacter baumannii clinical isolate 14 assessed as inhibition of bacterial growth by CLSI protocol based method
Escherichia coli [11] = assay: Antibacterial activity against Escherichia coli CG-4 expressing MCR-1 and NDM-1 assessed as inhibition of bacterial growth by CLSI protocol based method
Acinetobacter baumannii [12] = assay: Antibacterial activity against multi-drug resistant Acinetobacter baumannii clinical isolate 43 assessed as inhibition of bacterial growth by CLSI protocol based method
Acinetobacter baumannii [13] = assay: Antibacterial activity against multi-drug resistant Acinetobacter baumannii clinical isolate 2 assessed as inhibition of bacterial growth by CLSI protocol based method
Acinetobacter baumannii [14] = assay: Antibacterial activity against multi-drug resistant Acinetobacter baumannii clinical isolate 1 assessed as inhibition of bacterial growth by CLSI protocol based method
Acinetobacter baumannii [15] = assay: Antibacterial activity against multi-drug resistant Acinetobacter baumannii clinical isolate 4 assessed as inhibition of bacterial growth by CLSI protocol based method
Escherichia coli [16] = assay: Antibacterial activity against multi-drug resistant Escherichia coli clinical isolate 1 assessed as inhibition of bacterial growth by CLSI protocol based method
Acinetobacter baumannii [17] = assay: Antibacterial activity against multi-drug resistant Acinetobacter baumannii clinical isolate 10 assessed as inhibition of bacterial growth by CLSI protocol based method

SMILES | MIC (Escherichia coli [1]) [µg/mL] | MIC (Klebsiella pneumoniae [2]) [µg/mL] | MIC (Pseudomonas aeruginosa [3]) [µg/mL] | MIC (Acinetobacter baumannii [4]) [µg/mL] | MIC (Klebsiella pneumoniae [5]) [µg/mL] | MIC (Escherichia coli [6]) [µg/mL] | MIC (Pseudomonas aeruginosa [7]) [µg/mL] | MIC (Acinetobacter baumannii [8]) [µg/mL] | MIC (Acinetobacter baumannii [9]) [µg/mL] | MIC (Acinetobacter baumannii [10]) [µg/mL] | MIC (Escherichia coli [11]) [µg/mL] | MIC (Acinetobacter baumannii [12]) [µg/mL] | MIC (Acinetobacter baumannii [13]) [µg/mL] | MIC (Acinetobacter baumannii [14]) [µg/mL] | MIC (Acinetobacter baumannii [15]) [µg/mL] | MIC (Escherichia coli [16]) [µg/mL] | MIC (Acinetobacter baumannii [17]) [µg/mL]
CN(CCCl)c1ccc(/C=C/c2cc(C(C)(C)C)[o+]c(C(C)(C)C)c2)cc1.O=S(=O)([O-])C(F)(F)F | > 100 | > 100 | > 100 | > 100 | > 100 | > 100 | > 100 | – | – | – | – | – | – | – | – | – | –
NCC[C@H](O)C(=O)N[C@@H]1C[C@H](N)[C@@H](O[C@H]2O[C@H](CN)[C@@H](O)[C@H](O)[C@H]2O)[C@H](O)[C@H]1O[C@H]1O[C@H](CO)[C@@H](O)[C@H](N)[C@H]1O [AMIKACIN] | 1.56 (≈ 2.66 µM) | 50 (≈ 85.4 µM) | 0.2 (≈ 0.342 µM) | 0.78 (≈ 1.33 µM) | 0.78 (≈ 1.33 µM) | 6.25 (≈ 10.7 µM) | 0.78 (≈ 1.33 µM) | > 100 | > 100 | 50 (≈ 85.4 µM) | 100 (≈ 171 µM) | > 100 | > 100 | > 100 | > 100 | > 100 | > 100
CCOc1ccc(/C=C/c2cc(C(C)(C)C)[o+]c(C(C)(C)C)c2)cc1OC.O=S(=O)([O-])C(F)(F)F | > 100 | > 100 | > 100 | > 100 | > 100 | > 100 | > 100 | – | – | – | – | – | – | – | – | – | –
CC(=O)OCCN(CCOC(C)=O)c1ccc(/C=C/c2cc(C(C)(C)C)[o+]c(C(C)(C)C)c2)cc1.O=S(=O)([O-])C(F)(F)F | > 100 | > 100 | > 100 | > 100 | > 100 | > 100 | > 100 | – | – | – | – | – | – | – | – | – | –
CCCCN(CCCC)c1ccc(/C=C/c2cc(C(C)(C)C)[o+]c(C(C)(C)C)c2)cc1.O=S(=O)([O-])C(F)(F)F | > 100 | > 100 | > 100 | > 100 | > 100 | > 100 | > 100 | – | – | – | – | – | – | – | – | – | –
CN(C)c1ccc(/C=C/C=C/c2cc(C(C)(C)C)[o+]c(C(C)(C)C)c2)cc1.O=S(=O)([O-])C(F)(F)F | > 100 | > 100 | > 100 | > 100 | > 100 | > 100 | > 100 | – | – | – | – | – | – | – | – | – | –
Cn1c(=O)n(C)c2cc(/C=C/c3cc(C(C)(C)C)[o+]c(C(C)(C)C)c3)ccc21.O=S(=O)([O-])C(F)(F)F | > 100 | > 100 | > 100 | > 100 | > 100 | > 100 | > 100 | – | – | – | – | – | – | – | – | – | –
CC(C)(C)c1cc(NC(=O)/C=C/C=C/c2ccccc2)cc(C(C)(C)C)c1 | > 100 | > 100 | > 100 | > 100 | > 100 | > 100 | > 100 | – | – | – | – | – | – | – | – | – | –
CC(C)(C)c1cc(/C=C/c2ccc(N(CCCl)CCCl)cc2)cc(C(C)(C)C)[o+]1.O=S(=O)([O-])C(F)(F)F | > 100 | > 100 | > 100 | > 100 | > 100 | > 100 | > 100 | – | – | – | – | – | – | – | – | – | –
CC(C)(C)c1cc(NC(=O)/C=C/c2cc3ccccc3o2)cc(C(C)(C)C)c1 | > 100 | > 100 | > 100 | > 100 | > 100 | > 100 | > 100 | – | – | – | – | – | – | – | – | – | –
CC(C)(C)c1cc(/C=C/c2ccc(N3CCOCC3)cc2)cc(C(C)(C)C)[o+]1.O=S(=O)([O-])C(F)(F)F | > 100 | > 100 | > 100 | > 100 | > 100 | > 100 | > 100 | – | – | – | – | – | – | – | – | – | –
CNC(C)[C@@H]1CC[C@@H](N)[C@@H](O[C@H]2[C@H](O)[C@@H](O[C@H]3OC[C@](C)(O)[C@H](NC)[C@H]3O)[C@H](N)C[C@@H]2N)O1.CN[C@@H]1[C@@H](O)[C@@H](O[C@@H]2[C@@H](O)[C@H](O[C@H]3O[C@H](C(C)N)CC[C@H]3N)[C@@H](N)C[C@H]2N)OC[C@]1(C)O.CN[C@@H]1[C@@H](O)[C@@H](O[C@@H]2[C@@H](O)[C@H](O[C@H]3O[C@H](CN)CC[C@H]3N)[C@@H](N)C[C@H]2N)OC[C@]1(C)O (stereo not given in full) | – | 1.56 | 0.2 | 0.78 | 6.25 | – | 0.78 | > 100 | > 100 | > 100 | – | > 100 | > 100 | > 100 | > 100 | – | > 100
COc1ccc(/C=C/c2cc(C(C)(C)C)[o+]c(C(C)(C)C)c2)c(Cl)c1.O=S(=O)([O-])C(F)(F)F | > 100 | > 100 | > 100 | > 100 | > 100 | > 100 | > 100 | – | – | – | – | – | – | – | – | – | –
CC(C)(C)c1cc(NC(=O)/C=C/C=C/c2ccccc2Cl)cc(C(C)(C)C)c1 | > 100 | > 100 | > 100 | > 100 | > 100 | > 100 | > 100 | – | – | – | – | – | – | – | – | – | –
CC(C)(C)c1cc(/C=C/c2ccc(N3CCCCC3)cc2)cc(C(C)(C)C)[o+]1.O=S(=O)([O-])C(F)(F)F | > 100 | > 100 | > 100 | 50 | > 100 | > 100 | > 100 | – | – | – | – | – | – | – | – | – | –
CCCN(CCC)c1ccc(/C=C/c2cc(C(C)(C)C)[o+]c(C(C)(C)C)c2)cc1.O=S(=O)([O-])C(F)(F)F | > 100 | > 100 | > 100 | > 100 | > 100 | > 100 | > 100 | – | – | – | – | – | – | – | – | – | –
CCn1c2ccccc2c2cc(/C=C/c3cc(C(C)(C)C)[o+]c(C(C)(C)C)c3)ccc21.O=S(=O)([O-])C(F)(F)F | > 100 | > 100 | > 100 | > 100 | > 100 | > 100 | > 100 | – | – | – | – | – | – | – | – | – | –
CC(C)(C)c1cc(/C=C/c2ccc3c(c2)CCO3)cc(C(C)(C)C)[o+]1.O=S(=O)([O-])C(F)(F)F | > 100 | > 100 | > 100 | > 100 | > 100 | > 100 | > 100 | – | – | – | – | – | – | – | – | – | –
CC(C)Oc1ccc(/C=C/c2cc(C(C)(C)C)[o+]c(C(C)(C)C)c2)cc1.O=S(=O)([O-])C(F)(F)F | > 100 | > 100 | > 100 | > 100 | > 100 | > 100 | > 100 | – | – | – | – | – | – | – | – | – | –
CN(CCC#N)c1ccc(/C=C/c2cc(C(C)(C)C)[o+]c(C(C)(C)C)c2)cc1.O=S(=O)([O-])C(F)(F)F | > 100 | > 100 | > 100 | > 100 | > 100 | > 100 | > 100 | – | – | – | – | – | – | – | – | – | –
CC(C)(C)c1cc(/C=C/c2ccc(N(c3ccccc3)c3ccccc3)cc2)cc(C(C)(C)C)[o+]1.O=S(=O)([O-])C(F)(F)F | > 100 | > 100 | > 100 | > 100 | > 100 | > 100 | > 100 | – | – | – | – | – | – | – | – | – | –
CCN(CCCl)c1ccc(/C=C/c2cc(C(C)(C)C)[o+]c(C(C)(C)C)c2)cc1.O=S(=O)([O-])C(F)(F)F | > 100 | > 100 | > 100 | > 100 | > 100 | > 100 | > 100 | – | – | – | – | – | – | – | – | – | –
